Experimental data taken from patent publication US10272117B2, “Methods of using an activator of cereblon for neural cell expansion and the treatment of central nervous system disorders” (Celgene Corporation, priority 2014, dated 2019).

Key:
zebrafish embryos = experiment: Immunostaining of neurons, proliferating cells, glia and serotonin-positive cells in zebrafish; assay type: in vivo; conditions: for numbers of serotonin-positive cells / numbers of radial glia cells: 54-55 hpf; for numbers of radial glia cells: Zrf-2
Experimental: Antibody staining of early neurons of zebrafish was performed by the following technique. The embryos 24 to 28 hours after fertilization were fixed at 4° C. for 12 hours in a 4% paraformaldehyde/phosphate buffer (pH 8.0). After washing four times with phosphate buffer, where each wash was performed for 15 minutes, blocking was carried out at normal temperature for one hour in 5% newborn goat serum dissolved in 0.5% Triton X-100/phosphate buffer. Primary antibody reaction was carried out using a monoclonal anti-acetylated tubulin antibody diluted at 1:1000 in the same solution at 4° C. for 12 hours. Then, after washing the embryos similarly with phosphate buffer, secondary antibody reaction was carried out using an anti-mouse antibody conjugated with Alexa Fluoro 488 (Molecular Probes) under the same conditions as those applied in the primary antibody reaction. The embryos were then washed with phosphate buffer and transparentized in 30%/50%/70% glycerol (dissolved in phosphate buffer), and then observed with a fluorescent microscope under excitation at 488 nm.
Two-days-old zebrafish were used (for glia cell staining and serotonin-producing cell staining, zebrafish 56 hours and 49 hours after fertilization were used, respectively). Zebrafish were fixed with 4% paraformaldehyde (PFA) and then washed with phosphate buffer (PBS), followed by treatment with 10 μg/ml protease K for partial digestion of the epidermis. After the digestion reaction, the zebrafish were washed with PBST (PBS+0.5% Triton X-100) for 20 minutes and then fixed with PFA again. The fixed zebrafish were washed with PBST at room temperature for one hour, followed by blocking using PBST+5% goat serum. The resulting specimens were reacted with a monoclonal anti-glia antibody (zrf-1/zrf-2) or a rabbit anti-serotonin antibody at 4° C. overnight (12 to 18 hours). Subsequently, the specimens were washed with PBST+5% goat serum for one hour at room temperature, and secondary antibody reaction was carried out by substituting the antibody for a goat anti-mouse IgG antibody (Cy-2 conjugate for glia cell staining) or a goat anti-rabbit IgG antibody (Cy-5 conjugate for serotonin-producing cell staining) at 4° C. overnight (12 to 18 hours). Subsequently, the specimens were washed with PBST at room temperature for one hour. After washing, PBST was replaced by 30%, 50%, and 70% glycerol/PBS, and the whole zebrafish were mounted on glass slides to obtain preparations. Fluorescence was observed under excitation wavelength of Cy-2 and Cy-5, and the distribution of the glia cells or the serotonin-producing cells was recorded. Glia cells were observed from the lateral side of zebrafish, while the serotonin-producing cells were photographed from the dorsal side in order to observe the distribution of the cells along the midline.
Numbers of primary neurons and proliferating cells were analyzed by immunostaining in untreated and Ikaros-knockdown zebrafish embryos at 27 hpf. FIGS. 17A and 17D show the primary neurons in the CNS of the untreated and the Ikaros-knockdown zebrafish embryos, respectively, at 27 hpf by immunostaining with anti-acetylated tubulin antibody. FIGS. 17B and 17E show the proliferating cells in the CNS of the untreated and the Ikaros-knockdown zebrafish embryos, respectively, at 27 hpf by immunostaining with anti-phospho-histone H3 antibodies. […] Global distribution of the primary neurons was normal as shown (scale bar: 50 μm).
The number of phosphorylated histone H3-positive cells was counted in a stacked focal plane of laser confocal microscope at 27 hpf. The average number of the H3-positive cells in the telencephalon, the diencephalon, and the midbrain was statistically compared between the untreated and the Ikaros-knockdown embryos (n=3 in each experiment).
The numbers of radial glial cells and matured neurons were analyzed in untreated and CRBN-overexpressing zebrafish embryos. […]

zebrafish = experiment: Resistance to thalidomide in brain development (brain thickness to body length); assay type: in vivo
Experimental: To analyze the functional relationship between thalidomide and BRD7, brain development of BRD7-knockdown zebrafish treated with thalidomide was examined and compared with that of normal zebrafish treated with thalidomide. […] FIGS. 12A and 12B show the normal zebrafish treated with 400 μM thalidomide. FIGS. 12C and 12D show the BRD7-knockdown zebrafish treated with 400 μM thalidomide. FIGS. 12A′ and 12C′ show the brain regions of the normal zebrafish treated with 400 μM thalidomide. FIGS. 12B′ and 12D′ show the brain regions of the BRD7-knockdown zebrafish treated with 400 μM thalidomide. […] The percentages of brain thickness to body length in the normal and the BRD7-knockdown zebrafish, with or without thalidomide treatments were also measured. […] The brain size of the BRD7-knockdown larvae incubated in thalidomide is 98.8% of that of the BRD7-knockdown larvae incubated in the absence of thalidomide.

Row | Substance | numbers of serotonin-positive cells (zebrafish embryos) | numbers of radial glia cells (zebrafish embryos) | brain size relative to normal larvae (zebrafish; in 400 μM of thalidomide, n=12) [%] | brain development of BRD7-knockdown larvae (zebrafish; in thalidomide solution (400 μM)) | brain size relative to normal larvae (zebrafish; normal E3 medium, without thalidomide treatment) [%] | number of the primary neurons in the CNS (zebrafish embryos; 27 hpf, anti-acetylated tubulin) | number of the proliferating cells in the CNS (zebrafish embryos; 27 hpf, anti-phospho-histone H3) | number of H3-positive proliferating cells in telencephalon, diencephalon and midbrain (zebrafish embryos; 27 hpf, n=3)
1 | 5′-AGAGCTGTAGCTGGTTCCCCATTTC-3′ (all phosphorodiamidate morpholino (PMO)) [CRBN-knockdown, 25-mer antisense morpholino oligonucleotide (AMO) used for the CRBN gene knockdown, reference compound] | decreased | decreased |  |  |  |  |  | 
2 | 5′-TGTGTTTCTTGTGCTTTTTGCCCAT-3′ (all phosphorodiamidate morpholino (PMO)) [BRD7-knockdown, 25-mer antisense morpholino oligonucleotide (AMO) used for the BRD7 gene knockdown] |  |  | 140.0 | developed almost normally | 120.7 |  |  | 
3 | 5′-TTCCTGTGCCTCCTCAGTCTCCATC-3′ (all phosphorodiamidate morpholino (PMO)) [Ikaros-knockdown, 25-mer antisense morpholino oligonucleotide (AMO) used for the Ikaros gene knockdown] | increased | increased |  |  |  | increased | increased | increased
